From patent publication US8334236B2, “Ring-fused 2-pyridone derivatives and herbicides” (Kumiai Chemical Industry Co., Ltd., priority 2009, dated 2012)

Assays:
Assay type in all cases: in vivo
Set-up in all cases: scale not given here
[1] = system: Echinochloa oryzicola Vasing; assay: Test Example 1: herbicidal effects in paddy field soil treatment; conditions: 1000 g active ingredient per hectare, 21st day after treatment
Protocol: (§1) 100-cm^2 plastic pots were filled with paddy field soil. After puddling and leveling, seeds of Echinochloa oryzicola Vasing, Monochoria vaginalis (Burm. f.) Presl var. plantaginea (Roxb.) Solms-Laub., and Scirpus juncoides Roxb. var. ohwianus. T. Koyama were sowed in the pots, and the soil was waterlogged to a water depth of 3 cm. On the next day, a wettable powder formulation prepared according to Formulation Example 1 was diluted with water, and the dilution was added dropwise onto the water surface. The amount of application was an amount equivalent to 1000 g of the active ingredient per hectare. Thereafter, the plants were grown in a greenhouse, and on the 21st day after the treatment, the herbicidal effects were investigated according to the criteria described in Table 71.
(§2) In addition, comparative compound A, comparative compound B, comparative compound C, and comparative compound D in the tables represent Compound Nos. 70, 34, 32, and 31, respectively, as described in EP-283261. The structural formulas of these compounds are presented below.

[2] = system: Monochoria vaginalis (Burm. f.) Presl var. plantaginea (Roxb.) Solms-Laub.; assay: as above; conditions: 1000 g active ingredient per hectare, 21st day after treatment
Protocol: as §1, §2

[3] = system: Scirpus juncoides Roxb. var. ohwianus. T. Koyama; assay: as above; conditions: 1000 g active ingredient per hectare, 21st day after treatment
Protocol: as §1, §2

[4] = system: Abutilon theophrasti medicus; assay: Test Example 2: herbicidal effects in farmland soil treatment; conditions: 1000 g active ingredient per hectare, 21st day after treatment
Protocol: (§3) 80-cm^2 plastic pots were filled with farmland soil. Seeds of Abutilon theophrasti medicus and Amaranthus retroflexus were sowed in the pots, and soil was covered. A wettable powder formulation prepared according to Formulation Example 1 was diluted with water, and the dilution was uniformly sprayed on the soil surface with a small sprayer, in an amount equivalent to 1000 liters per hectare, such that 1000 g of the active ingredient was applied per hectare. Thereafter, the plants were grown in a greenhouse, and on the 21st day after the treatment, the herbicidal effects were investigated according to the criteria described in Table 71 shown above.

Amaranthus retroflexus [5] = assay: as above; conditions: 1000 g active ingredient per hectare, 21st day after treatment
Protocol: as §3

[6] = system: Abutilon theophrasti medicus; assay: Test Example 3: herbicidal effects in farmland foliar treatment; conditions: 1000 g active ingredient per hectare, 14th day after treatment
Protocol: (§4) 80-cm^2 plastic pots were filled with farmland soil. Seeds of Echinochloa crus-galli (L.) P. Beauv. var. crus-galli, Abutilon theophrasti medicus, and Amaranthus retroflexus were sowed in the pots, and the plants were grown for two weeks in a greenhouse. A wettable powder formulation prepared according to Formulation Example 1 was diluted with water, and the dilution was applied by foliar treatment by spraying with a small sprayer over the whole plant from the upper part, in an amount equivalent to 1000 liters per hectare, such that 1000 g of the active ingredient was applied per hectare. Thereafter, the plants were grown in a greenhouse, and on the 14th day after the treatment, the herbicidal effects were investigated according to the criteria described in Table 71 shown above.

Amaranthus retroflexus [7] = assay: as above; conditions: 1000 g active ingredient per hectare, 14th day after treatment
Protocol: as §4

[8] = system: Echinochloa crus-galli (L.) P. Beauv. var. crus-galli; assay: as above; conditions: 1000 g active ingredient per hectare, 14th day after treatment
Protocol: as §4

Echinochloa crus-galli = assay: Test Example 2: herbicidal effects in farmland soil treatment; conditions: 1000 g active ingredient per hectare, 21st day after treatment
Setaria viridis [9] = assay: as above; conditions: 1000 g active ingredient per hectare, 21st day after treatment
Setaria viridis [10] = assay: Test Example 3: herbicidal effects in farmland foliar treatment; conditions: 1000 g active ingredient per hectare, 14th day after treatment

Row | Compound | Herbicidal effect index, Echinochloa oryzicola [1] | Herbicidal effect index, Monochoria vaginalis [2] | Herbicidal effect index, Scirpus juncoides [3] | Herbicidal effect index, Abutilon thophrasti [4] | Herbicidal effect index, Amaranthus retroflexus (Amaranthus retroflexus [5]) | Herbicidal effect index, Abutilon theoprasti [6] | Herbicidal effect index, Amaranthus retroflexus (Amaranthus retroflexus [7]) | Herbicidal effect index, Echinochloa crus-galli [8] | Herbicidal effect index, Echinochloa crus-galli (Echinochloa crus-galli) | Herbicidal effect index, Setaria viridis (Setaria viridis [9]) | Herbicidal effect index, Setaria viridis (Setaria viridis [10])
1 | O=C1CCCC(O)=C1C(=O)c1cnccn1 [Comparative compound A, reference compound] | 2 | 0 | 0 | 1 | 0 | 2 | 1 | 0 | 5 | 1 | 0
2 | O=C1CCCC(O)=C1C(=O)c1ccc2ccccc2n1 [Comparative compound B, reference compound] | 0 | 0 | 0 | 2 | 2 | 5 | 1 | 0 | 3 | 0 | 0
3 | CC1(C)CC(=O)C(C(=O)c2cnc3ccccc3n2)=C(O)C1 [Comparative compound C, reference compound] | 1 | 2 | 1 | 0 | 3 | 4 | 0 | 0 | 2 | 0 | 0
4 | CC1(C)CCC(=O)C(C(=O)c2cnc3ccccc3n2)=C1O [Comparative compound D, reference compound] | 1 | 4 | 2 | 0 | 3 | 4 | 1 | 0 | 2 | 0 | 0
5 | COc1ccc(-n2c(=O)c(C(=O)C3=C(O)CCCC3=O)cc3ccccc32)cc1 [I-56] | 5 | 5 | 5 |  |  | 5 | 5 | 3 |  |  | 3
6 | CCn1c(=O)c(C(=O)C2=C(O)CCCC2=O)cc2c(Cl)cccc21 [I-157] | 5 | 4 | 3 |  |  |  |  |  |  |  | 
7 | CCn1c(=O)c(C(=O)C2=C(O)CCCC2=O)cc2cccnc21 [II-3] | 5 | 5 | 5 |  |  | 5 | 5 | 5 |  |  | 4
8 | CCCn1c(=O)c(C(=O)C2=C(O)CCCC2=O)cc2cccnc21 [II-4] | 5 | 5 | 5 | 5 | 5 | 5 | 5 | 5 | 5 | 4 | 4
9 | CCOCCn1c(=O)c(C(=O)C2=C(O)CCCC2=O)cc2cccnc21 [II-15] | 5 | 5 | 5 | 5 | 5 | 5 | 5 | 5 | 5 | 5 | 5
10 | O=C1CCCC(O)=C1C(=O)c1cc2cccnc2n(Cc2ccccc2Cl)c1=O [II-28] | 5 | 5 | 5 |  |  | 5 | 5 | 4 |  |  | 3
11 | O=C1CCCC(O)=C1C(=O)c1cc2cccnc2n(Cc2cccc(Cl)c2)c1=O [II-29] | 5 | 5 | 5 |  |  |  |  |  |  |  | 
12 | O=C1CCCC(O)=C1C(=O)c1cc2cccnc2n(Cc2ccc(Cl)cc2)c1=O [II-30] | 4 | 5 | 5 |  |  |  |  |  |  |  | 
13 | COc1cccc(Cn2c(=O)c(C(=O)C3=C(O)CCCC3=O)cc3cccnc32)c1 [II-38] | 5 | 5 | 5 |  |  |  |  |  |  |  | 
14 | COc1ccc(Cn2c(=O)c(C(=O)C3=C(O)CCCC3=O)cc3cccnc32)cc1 [II-39] | 5 | 5 | 5 |  |  | 5 | 5 | 5 |  |  | 3
15 | O=C1CCCC(O)=C1C(=O)c1cc2cccnc2n(-c2cccc(F)c2)c1=O [II-43] | 5 | 5 | 5 | 5 | 5 | 5 | 5 | 5 | 5 | 5 | 5
16 | Cc1ccc2cc(C(=O)C3=C(O)CCCC3=O)c(=O)n(C)c2n1 [II-121] | 5 | 5 | 5 |  |  | 5 | 5 | 4 |  |  | 3
17 | CC(C)c1ccc2cc(C(=O)C3=C(O)CCCC3=O)c(=O)n(C)c2n1 [II-126] | 3 | 5 | 4 |  |  |  |  |  |  |  | 
18 | O=C1CCCC(O)=C1C(=O)c1cc2ccc(C(F)(F)F)nc2n(-c2ccccc2)c1=O [II-138] | 5 | 5 | 5 |  |  | 5 | 3 | 5 |  |  | 5
19 | CCc1ccc2cc(C(=O)C3=C(O)CCCC3=O)c(=O)n(C)c2n1 [II-434] | 5 | 5 | 5 |  |  |  |  |  |  |  | 
20 | O=C1CCCC(O)=C1C(=O)c1cc2ccc(C(F)F)nc2n(-c2ccc3c(c2)OCCO3)c1=O [II-442] | 5 | 5 | 5 |  |  |  |  |  |  |  | 
21 | O=C1CCCC(O)=C1C(=O)c1cc2ncccc2n(-c2ccccc2)c1=O [III-41] | 4 | 4 | 4 |  |  |  |  |  |  |  | 
